Results on 3 molecules are retold here after ChEMBL document CHEMBL5608109, “Hepatotoxicity screening of Donated Chemical Probes” (2024).

The term viability denotes a read-out of living cells in per cent, often relative to untreated cells.

The subject of this assay is Hepatocyte spheroids. Nature of the assay: This assay model using primary human hepatocyte (PHH) spheroids, which are cultured in Williams E medium. After spheroid formation, cells are exposed to compounds in an FBS-free culture medium. […] Imaging is performed on an Opera Phenix High-Content Screening System, allowing quantification of proliferation as a readout for evaluating the effects of chemical probes on hepatocyte regeneration. It is filed as functional. The note with it: read-out: Cell Viability; for viability at 0.1 µM: Concentration 0.1 uM; for viability at 1 µM: Concentration 1 uM.

Turning to `CCCOc1ccc([C@H]2[C@H](C(=O)O)[C@@H](c3ccc4c(c3)OCO4)CN2CC(=O)Nc2c(CC)cccc2CC)cc1` [A-192621], the viability at 0.1 µM is listed as 104% (non-toxic) and the viability at 1 µM is recorded as 110% (non-toxic).
On the same counts, the results for `C[C@@H]1CN(c2cc(-c3n[nH]c4ccc(OC5(C)CC5)cc34)ncn2)C[C@H](C)O1` [MLi-2] are 79.3% (non-toxic) and 79.7% (non-toxic).
On the same counts, the results for `CCCCN(CCCC)C(=O)CN1C[C@H](c2cc(OC)c3c(c2)OCO3)[C@@H](C(=O)O)[C@@H]1CC(C)(C)CCC` are 107% (non-toxic) and 83.6% (non-toxic).
